Test results from the Deep4Chem optical property database.

Assay: solvent given as SMILES

Compound: CN(C)c1ccc(/C=C2\CCCC2=O)cc1
- absorption maximum (in CC#N): 380 nm
- absorption maximum (in CC(C)=O): 379 nm
- absorption maximum (in CC(C)O): 390 nm
- absorption maximum (in CCCCCC): 357 nm
- absorption maximum (in CCCCO): 392 nm
- absorption maximum (in CCCO): 394 nm
- absorption maximum (in CCO): 390 nm
- absorption maximum (in CCOC(C)=O): 370 nm
- absorption maximum (in CCOCC): 365 nm
- absorption maximum (in CN(C)C=O): 383 nm
- absorption maximum (in CO): 391 nm
- absorption maximum (in CS(C)=O): 383 nm
- absorption maximum (in Cc1ccccc1): 373 nm
- absorption maximum (in ClC(Cl)(Cl)Cl): 370 nm
- absorption maximum (in ClC(Cl)Cl): 383 nm
- absorption maximum (in ClCCl): 383 nm
- absorption maximum (in S=C=S): 387 nm
- absorption maximum (in c1ccccc1): 380 nm
- absorption maximum (in c1ccncc1): 384 nm

Compound: COC(=O)c1cc(=O)n(C)c2cc(-c3ccc4c(c3)OCO4)sc12
- absorption maximum (in CC#N): 400 nm
- absorption maximum (in ClCCl): 404 nm

Compound: Cc1c(COC(=O)Cc2cccc3ccccc23)n2c(OCC(=O)Cc3cccc4ccccc34)c(C)c(=O)n2c1=O
- absorption maximum (in CCO): 379 nm

Compound: O=C1c2ccccc2-c2c(-c3ccc([N+](=O)[O-])cc3)c(-c3ccc([N+](=O)[O-])cc3)c(-c3ccccc3)c3cccc1c23
- absorption maximum (in CC#N): 396 nm
- absorption maximum (in CO): 400 nm

Compound: c1ccc(N(c2ccccc2)c2ccc(-c3nc4ccccc4n3-c3ccccc3)cc2)cc1
- absorption maximum (in CC#N): 339 nm

Compound: Cc1ccc(C2=C3C=CC(Oc4ccccc4)=[N+]3[B-](F)(F)n3c(Oc4ccccc4)ccc32)cc1
- absorption maximum (in C1CCOC1): 516 nm

Compound: CCOC(=O)c1cc(C(=O)OCC)c2cc([N+](=O)[O-])ccc2n1
- absorption maximum (in CCO): 304 nm

Compound: Cc1ccc(C2=[N+]3C(=Cc4c(C)cc(C)n4[B-]3(F)F)c3ccccc32)[nH]1
- absorption maximum (in C1CCOC1): 607 nm
- absorption maximum (in CC#N): 600 nm
- absorption maximum (in CCCCCC): 607 nm
- absorption maximum (in CO): 602 nm
- absorption maximum (in Cc1ccccc1): 612 nm
- absorption maximum (in ClCCl): 608 nm

Compound: CCn1c2ccccc2c2cc(-c3cc(-c4ccc5c(c4)c4ccccc4n5CC)nc(SC)n3)ccc21
- absorption maximum (in C1CCOC1): 371 nm
- absorption maximum (in CCOC(C)=O): 369 nm
- absorption maximum (in CN(C)C=O): 374 nm
- absorption maximum (in Cc1ccccc1): 370 nm
- absorption maximum (in ClCCl): 370 nm

Compound: c1ccc(-c2ccc(-c3ccc4c(c3)CCO4)cc2)cc1
- absorption maximum (in C1CCCCC1): 289 nm

Compound: O=c1ccc2ccccc2o1
- absorption maximum (in O): 306 nm

Compound: COc1ccc2c(c1)c(C#N)cc1c(OC)c(OC)c3cc(C#N)c4cc(OC)ccc4c3c12
- absorption maximum (in ClC(Cl)Cl): 471 nm

Compound: CC(C)(C)c1ccc(-n2c(-c3ccc(-c4cccc(-c5c(-c6ccccc6)nc6ccccn56)c4)cc3)nc3c4ccccc4c4ccccc4c32)cc1
- absorption maximum (in ClCCl): 365 nm

Compound: c1ccc(C(=C(c2ccccc2)c2ccc(-c3nc4c(-c5ccc(C(=C(c6ccccc6)c6ccccc6)c6ccccc6)cc5)sc(-c5ccc(C(=C(c6ccccc6)c6ccccc6)c6ccccc6)cc5)c4nc3-c3ccc(C(=C(c4ccccc4)c4ccccc4)c4ccccc4)cc3)cc2)c2ccccc2)cc1
- absorption maximum (in Cc1ccccc1): 538 nm
- absorption maximum (in ClCCl): 520 nm

Compound: O=S(=O)(c1cccc(N2c3ccccc3Oc3ccccc32)c1)c1cccc(N2c3ccccc3Oc3ccccc32)c1
- absorption maximum (in C1CCOC1): 317 nm
- absorption maximum (in Cc1ccccc1): 308 nm
- absorption maximum (in ClC(Cl)Cl): 315 nm

Compound: CCCCC1(CCCC)c2ccccc2-c2ccc(-c3c4c(nc5ccccc35)-c3cc5c(cc3CC4)-c3nc4ccccc4c(-c4ccc6c(c4)C(CCCC)(CCCC)c4ccccc4-6)c3CC5)cc21
- absorption maximum (in ClC(Cl)Cl): 377 nm

Compound: CCC1=C(C)c2cc3c(OC)cc(OC)cc3c(=O)n2C1=O
- absorption maximum (in CC#N): 433 nm
- absorption maximum (in CO): 433 nm
- absorption maximum (in CS(C)=O): 434 nm
- absorption maximum (in ClC(Cl)Cl): 434 nm

Compound: CN(C)c1ccc(/C=C/C=C/c2nc3ccccc3o2)cc1
- absorption maximum (in C1COCCO1): 411 nm
- absorption maximum (in CC#N): 410 nm
- absorption maximum (in CC(C)=O): 409 nm
- absorption maximum (in CCCCCC): 401 nm
- absorption maximum (in CCCCO): 417 nm
- absorption maximum (in CCCO): 417 nm
- absorption maximum (in CCO): 417 nm
- absorption maximum (in CN(C)C=O): 419 nm
- absorption maximum (in CO): 417 nm
- absorption maximum (in Cc1ccccc1): 413 nm
- absorption maximum (in ClC(Cl)(Cl)Cl): 406 nm
- absorption maximum (in ClC(Cl)Cl): 414 nm
- absorption maximum (in ClCCl): 415 nm
- absorption maximum (in OCC(O)CO): 424 nm
- absorption maximum (in OCCO): 424 nm
- absorption maximum (in c1ccccc1): 411 nm

Compound: O=c1c(-c2ccc(O)cc2)coc2cc(O)cc(O)c12
- absorption maximum (in CC#N): 360 nm
- absorption maximum (in CCO): 340 nm

Compound: CCOC(=O)c1cc(C(=O)OCC)c2ccc(O)cc2n1
- absorption maximum (in CCO): 373 nm

Compound: COc1cc(-c2nc3c4cccnc4c4ncccc4c3[nH]2)c(OC)cc1/C=C/c1ccncc1
- absorption maximum (in C1CCOC1): 394 nm
- absorption maximum (in CC#N): 392 nm
- absorption maximum (in CN(C)C=O): 396 nm
- absorption maximum (in Cc1ccccc1): 395 nm

Compound: CCN(CC)c1ccc2c(-c3ccccc3C(=O)O)c3c([o+]c2c1)/C(=C/Nc1ccccc1)CCC3
- absorption maximum (in CCO): 595 nm
- absorption maximum (in ClC(Cl)Cl): 608 nm
- absorption maximum (in ClCCl): 607 nm

Compound: COC(=O)CNC(=O)c1nc2c(N(C)C)nc(N(C)C)nc2n1Cc1ccccc1
- absorption maximum (in C1COCCO1): 336 nm
- absorption maximum (in CC#N): 336 nm
- absorption maximum (in CO): 340 nm
- absorption maximum (in ClCCl): 343 nm

Compound: CN(C)c1ccc(/C=C/c2cc3ccccc3c[n+]2C)cc1
- absorption maximum (in CC(C)=O): 425 nm
- absorption maximum (in ClCCl): 441 nm

Compound: COc1c(C)c2c(c(C)c1Cl)Oc1c(C=O)c(O)c(Cl)c(C)c1C(=O)O2
- absorption maximum (in ClC(Cl)Cl): 342 nm

Compound: COC(=O)C(NC(=O)CCNc1cccc2ccccc12)c1ccccc1 (configuration not stated)
- absorption maximum (in CCO): 330 nm

Compound: COc1ccc(/C=C/c2cc[n+]3ccc(/C=C/c4ccc(OC)cc4)cc3c2)cc1
- absorption maximum (in CO): 444 nm

Compound: CCOc1cc2c(cc1/C=C/C(=C(C#N)C#N)c1ccccc1)c1ccccc1n2CC
- absorption maximum (in C1CCOC1): 462 nm
- absorption maximum (in CC#N): 462 nm
- absorption maximum (in CCO): 468 nm
- absorption maximum (in CCOC(C)=O): 458 nm
- absorption maximum (in CN(C)C=O): 471 nm
- absorption maximum (in CS(C)=O): 476 nm
- absorption maximum (in Cc1ccccc1): 462 nm
- absorption maximum (in ClC(Cl)Cl): 470 nm
- absorption maximum (in ClCCl): 468 nm

Compound: N#Cc1c(N2CCCCC2)cc(-c2ccc3ccccc3c2)c2c1-c1ccccc1C2
- absorption maximum (in C1CCOC1): 362 nm

Compound: Cc1ccccc1-c1c2cccc3c(-c4ccc(C(C)(C)C)cc4)cc4c(-c5ccccc5C)c5cccc6c(-c7ccc(C(C)(C)C)cc7)cc1c(c65)c4c32
- absorption maximum (in ClCCl): 447 nm

Compound: Cn1c(-c2ccc(-c3nc(-c4ccccc4)c(-c4ccccc4)n3C)s2)nc(-c2ccccc2)c1-c1ccccc1
- absorption maximum (in CC#N): 391 nm

Compound: C(#Cc1c(C#Cc2cccs2)c(C#Cc2cccs2)c(C#Cc2cccs2)c(C#Cc2cccs2)c1C#Cc1cccs1)c1cccs1
- absorption maximum (in ClCCl): 371 nm

Compound: CCCCCCOc1cc2cc(=O)oc3ccc4cccc1c4c23
- absorption maximum (in CC1CCCO1): 460 nm

Compound: COc1cc(OC)cc(C2=CC(c3ccccc3)=C(c3ccccc3)C2)c1
- absorption maximum (in ClCCl): 355 nm

Compound: C#Cc1ccc2cc3c(C)cc(=O)oc3cc2c1
- absorption maximum (in CCO): 334 nm

Compound: Cc1ccc2nc(-c3cccc4nc(C)[nH]c(=O)c34)[nH]c2c1
- absorption maximum (in CN(C)C=O): 322 nm

Compound: Cc1cc2c3ccccc3oc2c2[nH]c3ccccc3c12
- absorption maximum (in ClCCl): 314 nm

Compound: CC(C)(C)NC(=O)c1ccc2ccc3cccc4c3c2c1c1c2ccccc2c2ccccc2c41
- absorption maximum (in ClCCl): 392 nm

Compound: Cc1ccc(/C2=c3\cc/c(o3)=C(\c3ccc(C)cc3)c3ccc([nH]3)-c3ccc4n3[B-](F)(F)[N+]3=C(C=CC3=C4c3cccs3)c3ccc2[nH]3)cc1
- absorption maximum (in ClC(Cl)Cl): 709 nm

Compound: CCCCCCc1cc2c(s1)-c1sc(CCCCCC)cc1P(c1ccccc1)(c1ccccc1)=[O+][B-]2(c1c(C)cc(C)cc1C)c1c(C)cc(C)cc1C
- absorption maximum (in C1CCOC1): 431 nm

Compound: O=C1C2=C(O[B-](F)(F)[n+]3c2ccc2ccccc23)c2ccc(N3CCOCC3)c3cccc1c23
- absorption maximum (in C1CCOC1): 464 nm
- absorption maximum (in CC#N): 468 nm
- absorption maximum (in CCO): 460 nm
- absorption maximum (in CO): 461 nm
- absorption maximum (in ClCCl): 468 nm

Compound: CCCCCCN1C(=O)c2cccc3c(-c4ccc(-c5cc(-c6ccc(Cl)cc6)nn5-c5ccccc5)s4)ccc(c23)C1=O
- absorption maximum (in ClCCl): 389 nm

Compound: c1ccc(N2c3ccc4ccccc4c3-c3c4ccccc4cc[n+]3[B-]2(c2ccccc2)c2ccccc2)cc1
- absorption maximum (in Cc1ccccc1): 511 nm

Compound: Cc1cc(C2=C(c3cc(C)sc3C)S(=O)(=O)c3ccccc32)c(C)s1
- absorption maximum (in C1CCOC1): 349 nm

Compound: Cc1nc(-c2cc(F)ccc2O)n2c1CCCC2
- absorption maximum (in ClCCl): 326 nm

Compound: [O-][n+]1c(/C=C/c2ccccc2)nc(Nc2ccccc2)c2c1CCCC2
- absorption maximum (in ClCCl): 416 nm

Compound: CCn1c2ccccc2c2cc(/C=C(\C#N)c3ccccc3)ccc21
- absorption maximum (in ClCCl): 374 nm

Compound: CN(C)c1ccc(/C=C/c2nc3c(ccc4ccccc43)s2)cc1
- absorption maximum (in C1CCCCC1): 402 nm
- absorption maximum (in CC#N): 409 nm

Compound: COc1ccc(C#Cc2ccccc2C#Cc2ccc(OC)cc2)cc1
- absorption maximum (in CC#N): 320 nm

Compound: c1ccc(-c2nc(-c3ccccc3)nc(-c3ccc(N4c5ccccc5C5(c6ccccc64)c4ccccc4N(c4ccc(-c6nc(-c7ccccc7)nc(-c7ccccc7)n6)cc4)c4ccccc45)cc3)n2)cc1
- absorption maximum (in Cc1ccccc1): 400 nm

Compound: CCCCCCOc1cc(C=O)c(OCCCCCC)cc1C=O
- absorption maximum (in ClCCl): 403 nm

Compound: CC1=CC(C)(C)N(C)c2cc3c(cc21)C(c1ccc(Br)cc1)=c1cc2c(cc1O3)=[N+](C)C(C)(C)C=C2C
- absorption maximum (in CCO): 594 nm

Compound: [O-][n+]1c(/C=C/c2cccs2)nc(N2CCOCC2)c2c1CCCC2
- absorption maximum (in ClCCl): 400 nm

Compound: OCc1ccc2c3cccc4cccc(c5cccc1c52)c43
- absorption maximum (in CCO): 439 nm

Compound: N#CC=C(c1ccc(N2c3ccccc3Oc3ccccc32)cc1)c1ccc(N2c3ccccc3Oc3ccccc32)cc1
- absorption maximum (in Cc1ccccc1): 405 nm

Compound: N#Cc1cccc(C#N)c1-c1ccc(N2c3ccccc3C3(c4ccccc42)c2ccccc2N(c2ccc(-c4c(C#N)cccc4C#N)cc2)c2ccccc23)cc1
- absorption maximum (in Cc1ccccc1): 371.03 nm

Compound: COc1ccc2cc(C#Cc3ccc([N+](=O)[O-])cc3)ccc2c1
- absorption maximum (in C1CCOC1): 356 nm
- absorption maximum (in ClC(Cl)Cl): 360 nm
- absorption maximum (in ClCCl): 356 nm
